In ChEMBL document CHEMBL3259595, “Nitric oxide synthase inhibitors that interact with both heme propionate and tetrahydrobiopterin show high isoform selectivity” (J Med Chem, 2014):

Legend:
Nitric oxide synthase 3 = target: T1, Nitric oxide synthase 3 (Bos taurus, UniProt P29473); assay: Inhibition of purified bovine eNOS assessed as inhibition of nitric oxide-mediated oxidation of hemoglobin-A by hemoglobin capture assay
T1 sequence (P29473 whole entry): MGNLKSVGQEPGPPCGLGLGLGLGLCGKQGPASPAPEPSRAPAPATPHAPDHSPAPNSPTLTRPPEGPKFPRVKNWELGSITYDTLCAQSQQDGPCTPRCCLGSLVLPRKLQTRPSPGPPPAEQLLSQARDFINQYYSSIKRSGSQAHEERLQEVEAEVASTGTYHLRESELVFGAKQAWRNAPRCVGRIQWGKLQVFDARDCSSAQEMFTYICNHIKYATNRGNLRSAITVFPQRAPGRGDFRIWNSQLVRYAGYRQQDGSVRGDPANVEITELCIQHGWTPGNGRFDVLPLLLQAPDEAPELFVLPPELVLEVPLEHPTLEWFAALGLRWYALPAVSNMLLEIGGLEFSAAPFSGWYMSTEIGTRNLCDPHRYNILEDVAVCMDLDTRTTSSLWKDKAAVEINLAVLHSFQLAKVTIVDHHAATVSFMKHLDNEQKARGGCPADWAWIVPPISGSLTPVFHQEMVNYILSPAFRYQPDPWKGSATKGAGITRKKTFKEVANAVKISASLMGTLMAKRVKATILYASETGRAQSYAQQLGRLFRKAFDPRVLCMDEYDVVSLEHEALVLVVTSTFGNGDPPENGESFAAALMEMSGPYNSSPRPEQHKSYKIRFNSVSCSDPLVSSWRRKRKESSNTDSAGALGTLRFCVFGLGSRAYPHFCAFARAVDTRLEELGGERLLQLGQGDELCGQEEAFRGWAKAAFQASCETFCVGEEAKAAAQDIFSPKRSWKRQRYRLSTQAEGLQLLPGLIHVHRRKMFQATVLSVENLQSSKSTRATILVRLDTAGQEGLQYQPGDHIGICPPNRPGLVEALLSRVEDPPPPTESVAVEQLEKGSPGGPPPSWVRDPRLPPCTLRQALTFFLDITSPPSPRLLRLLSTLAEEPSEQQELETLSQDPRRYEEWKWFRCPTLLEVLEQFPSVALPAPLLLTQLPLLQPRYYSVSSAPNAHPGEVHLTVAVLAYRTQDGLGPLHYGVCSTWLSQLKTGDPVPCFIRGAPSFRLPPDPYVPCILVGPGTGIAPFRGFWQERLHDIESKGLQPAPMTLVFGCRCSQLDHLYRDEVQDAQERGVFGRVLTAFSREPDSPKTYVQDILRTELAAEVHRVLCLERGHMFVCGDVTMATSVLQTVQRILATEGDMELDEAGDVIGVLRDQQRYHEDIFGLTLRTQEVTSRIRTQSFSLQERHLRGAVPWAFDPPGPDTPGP

[1] = target: T2, Nitric oxide synthase, inducible (Mus musculus, UniProt P29477); assay: Inhibition of purified mouse iNOS assessed as inhibition of nitric oxide-mediated oxidation of hemoglobin-A by hemoglobin capture assay
T2 sequence (P29477 whole entry): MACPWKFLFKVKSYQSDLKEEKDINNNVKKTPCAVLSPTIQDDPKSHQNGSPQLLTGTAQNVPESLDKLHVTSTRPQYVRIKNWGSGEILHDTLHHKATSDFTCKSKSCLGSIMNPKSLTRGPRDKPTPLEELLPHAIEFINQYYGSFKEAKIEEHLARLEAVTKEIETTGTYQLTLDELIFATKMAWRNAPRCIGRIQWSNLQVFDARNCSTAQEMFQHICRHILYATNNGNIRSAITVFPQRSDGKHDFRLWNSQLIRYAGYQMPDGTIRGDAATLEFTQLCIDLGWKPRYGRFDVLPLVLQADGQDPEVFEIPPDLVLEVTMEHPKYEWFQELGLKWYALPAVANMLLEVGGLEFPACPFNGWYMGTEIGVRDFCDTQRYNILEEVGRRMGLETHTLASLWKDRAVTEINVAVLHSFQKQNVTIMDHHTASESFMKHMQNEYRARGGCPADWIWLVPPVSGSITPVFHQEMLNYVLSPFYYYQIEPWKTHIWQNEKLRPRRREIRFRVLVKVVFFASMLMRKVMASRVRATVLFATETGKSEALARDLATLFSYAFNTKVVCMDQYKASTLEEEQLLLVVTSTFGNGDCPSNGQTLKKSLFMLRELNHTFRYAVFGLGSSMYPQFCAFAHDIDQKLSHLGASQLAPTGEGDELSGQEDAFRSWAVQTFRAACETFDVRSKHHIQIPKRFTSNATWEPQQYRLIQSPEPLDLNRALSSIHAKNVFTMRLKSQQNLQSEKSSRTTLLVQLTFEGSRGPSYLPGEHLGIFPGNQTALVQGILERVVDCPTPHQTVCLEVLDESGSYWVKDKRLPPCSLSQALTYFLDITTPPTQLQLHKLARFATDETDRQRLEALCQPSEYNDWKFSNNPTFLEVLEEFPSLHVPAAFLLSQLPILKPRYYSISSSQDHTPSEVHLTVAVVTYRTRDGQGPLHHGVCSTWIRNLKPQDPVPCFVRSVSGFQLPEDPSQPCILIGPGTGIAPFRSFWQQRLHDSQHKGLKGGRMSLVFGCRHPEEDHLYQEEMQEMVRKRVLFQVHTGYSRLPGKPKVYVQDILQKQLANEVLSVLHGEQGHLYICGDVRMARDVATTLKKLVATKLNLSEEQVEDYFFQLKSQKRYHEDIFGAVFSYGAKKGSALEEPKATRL

[2] = Selectivity ratio of Ki for purified mouse iNOS to Ki for purified rat nNOS
[3] = Selectivity ratio of Ki for purified bovine eNOS to Ki for purified rat nNOS
Nitric oxide synthase 1 = Nitric oxide synthase 1 (Rattus norvegicus, UniProt P29476); assay: Inhibition of purified rat nNOS assessed as inhibition of nitric oxide-mediated oxidation of hemoglobin-A by hemoglobin capture assay
Sequence of Nitric oxide synthase 1 (P29476 whole entry): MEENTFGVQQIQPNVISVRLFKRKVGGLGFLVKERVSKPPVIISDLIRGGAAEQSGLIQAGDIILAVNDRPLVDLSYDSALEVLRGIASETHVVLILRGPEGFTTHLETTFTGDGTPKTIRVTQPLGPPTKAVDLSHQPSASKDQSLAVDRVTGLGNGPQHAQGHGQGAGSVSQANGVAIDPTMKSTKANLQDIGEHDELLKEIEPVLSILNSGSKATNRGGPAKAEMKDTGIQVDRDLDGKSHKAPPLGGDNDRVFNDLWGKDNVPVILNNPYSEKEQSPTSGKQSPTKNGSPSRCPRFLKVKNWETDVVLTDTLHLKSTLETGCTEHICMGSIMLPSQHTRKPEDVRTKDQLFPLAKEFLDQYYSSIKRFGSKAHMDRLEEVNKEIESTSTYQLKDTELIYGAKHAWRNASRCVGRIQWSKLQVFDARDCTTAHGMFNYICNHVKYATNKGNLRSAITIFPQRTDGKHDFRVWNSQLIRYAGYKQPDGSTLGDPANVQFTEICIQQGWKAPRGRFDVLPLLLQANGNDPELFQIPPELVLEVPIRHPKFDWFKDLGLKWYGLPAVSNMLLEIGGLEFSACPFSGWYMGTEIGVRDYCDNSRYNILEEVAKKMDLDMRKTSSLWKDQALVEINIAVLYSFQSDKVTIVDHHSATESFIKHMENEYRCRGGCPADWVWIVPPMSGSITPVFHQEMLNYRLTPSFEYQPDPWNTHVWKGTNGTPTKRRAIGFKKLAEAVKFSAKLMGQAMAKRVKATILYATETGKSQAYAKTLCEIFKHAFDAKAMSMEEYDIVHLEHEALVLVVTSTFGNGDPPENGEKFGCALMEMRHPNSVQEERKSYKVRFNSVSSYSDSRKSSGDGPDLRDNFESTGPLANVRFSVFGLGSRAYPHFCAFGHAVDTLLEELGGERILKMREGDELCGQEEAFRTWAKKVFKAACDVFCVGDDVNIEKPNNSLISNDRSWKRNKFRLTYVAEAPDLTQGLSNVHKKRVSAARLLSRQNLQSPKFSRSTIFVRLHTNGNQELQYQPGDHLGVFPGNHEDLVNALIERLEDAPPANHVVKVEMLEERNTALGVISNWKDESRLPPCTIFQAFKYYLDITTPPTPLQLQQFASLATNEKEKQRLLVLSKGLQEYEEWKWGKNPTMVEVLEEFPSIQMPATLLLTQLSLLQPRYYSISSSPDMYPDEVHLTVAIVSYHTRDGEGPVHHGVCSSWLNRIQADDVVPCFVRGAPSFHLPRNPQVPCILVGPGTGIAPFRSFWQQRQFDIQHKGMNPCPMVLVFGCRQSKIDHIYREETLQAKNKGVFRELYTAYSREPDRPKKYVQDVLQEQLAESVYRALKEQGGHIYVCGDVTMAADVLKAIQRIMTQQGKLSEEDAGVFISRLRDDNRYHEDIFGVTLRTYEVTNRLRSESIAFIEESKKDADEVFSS

Ki (Nitric oxide synthase 1)	Compound	Ki (Nitric oxide synthase 3)	Ki [1]	Ratio Ki [2]	Ratio Ki [3]
	Cc1ccnc(CCc2cccc([C@H](N)Cc3cc(C)cc(N)n3)c2)c1	1050 µM	> 100 µM		
	Cc1ccnc(CCc2cccc([C@@H](N)Cc3cc(C)cc(N)n3)c2)c1		> 100 µM	> 110	363
0.123 µM	Cc1cc(N)nc(CCc2cccc(C(CN)Cc3cc(C)cc(N)n3)n2)c1 (racemic)		17.9 µM		
0.07 µM	Cc1cc(N)nc(CCc2cccc(C(O)Cc3cc(C)cc(N)n3)c2)c1 (configuration not stated)	3.61 µM	5.99 µM	86	52
